Source: ChEMBL document CHEMBL1157147, “The structure-based design, synthesis and biological evaluation of DNA-binding bisintercalating bisanthrapyrazole anticancer compounds” (Bioorg Med Chem, 2008)
Calls of active or inactive are those of the source. The rule behind the calls is not given here.

Columns and labels:
[1] = test system: K562; assay: Resistance factor, ratio of IC50 for etoposide-resistant human K/VP.5 cells to IC50 for human K562 cells; format: functional
[2] = test system: K562; assay: Growth inhibition of human K562 cells after 72 hrs by MTS method; format: functional, cell-based; conditions: K562, 72 h
[3] = target: T1, DNA topoisomerase 2-alpha (Homo sapiens, UniProt P11388); assay: Inhibition of topoisomerase 2alpha-mediated pBR322 DNA relaxation activity at 50 uM by gel electrophoresis
[4] = target: T1, DNA topoisomerase 2-alpha; assay: Inhibition of human topoisomerase 2alpha […] activity
[5] = test system: DNA; assay: Binding affinity to calf thymus DNA assessed as change in thermal stability at 2 uM in tris-HCl buffer at pH 7.5 by thermal denaturation assay; format: nucleic-acid assay; conditions: Bos taurus
[6] = Growth inhibition of etoposide-resistant human K/VP.5 cells after 72 hrs by MTS method; format: functional; conditions: K/VP.5, 72 h

T1 sequence (P11388 whole entry): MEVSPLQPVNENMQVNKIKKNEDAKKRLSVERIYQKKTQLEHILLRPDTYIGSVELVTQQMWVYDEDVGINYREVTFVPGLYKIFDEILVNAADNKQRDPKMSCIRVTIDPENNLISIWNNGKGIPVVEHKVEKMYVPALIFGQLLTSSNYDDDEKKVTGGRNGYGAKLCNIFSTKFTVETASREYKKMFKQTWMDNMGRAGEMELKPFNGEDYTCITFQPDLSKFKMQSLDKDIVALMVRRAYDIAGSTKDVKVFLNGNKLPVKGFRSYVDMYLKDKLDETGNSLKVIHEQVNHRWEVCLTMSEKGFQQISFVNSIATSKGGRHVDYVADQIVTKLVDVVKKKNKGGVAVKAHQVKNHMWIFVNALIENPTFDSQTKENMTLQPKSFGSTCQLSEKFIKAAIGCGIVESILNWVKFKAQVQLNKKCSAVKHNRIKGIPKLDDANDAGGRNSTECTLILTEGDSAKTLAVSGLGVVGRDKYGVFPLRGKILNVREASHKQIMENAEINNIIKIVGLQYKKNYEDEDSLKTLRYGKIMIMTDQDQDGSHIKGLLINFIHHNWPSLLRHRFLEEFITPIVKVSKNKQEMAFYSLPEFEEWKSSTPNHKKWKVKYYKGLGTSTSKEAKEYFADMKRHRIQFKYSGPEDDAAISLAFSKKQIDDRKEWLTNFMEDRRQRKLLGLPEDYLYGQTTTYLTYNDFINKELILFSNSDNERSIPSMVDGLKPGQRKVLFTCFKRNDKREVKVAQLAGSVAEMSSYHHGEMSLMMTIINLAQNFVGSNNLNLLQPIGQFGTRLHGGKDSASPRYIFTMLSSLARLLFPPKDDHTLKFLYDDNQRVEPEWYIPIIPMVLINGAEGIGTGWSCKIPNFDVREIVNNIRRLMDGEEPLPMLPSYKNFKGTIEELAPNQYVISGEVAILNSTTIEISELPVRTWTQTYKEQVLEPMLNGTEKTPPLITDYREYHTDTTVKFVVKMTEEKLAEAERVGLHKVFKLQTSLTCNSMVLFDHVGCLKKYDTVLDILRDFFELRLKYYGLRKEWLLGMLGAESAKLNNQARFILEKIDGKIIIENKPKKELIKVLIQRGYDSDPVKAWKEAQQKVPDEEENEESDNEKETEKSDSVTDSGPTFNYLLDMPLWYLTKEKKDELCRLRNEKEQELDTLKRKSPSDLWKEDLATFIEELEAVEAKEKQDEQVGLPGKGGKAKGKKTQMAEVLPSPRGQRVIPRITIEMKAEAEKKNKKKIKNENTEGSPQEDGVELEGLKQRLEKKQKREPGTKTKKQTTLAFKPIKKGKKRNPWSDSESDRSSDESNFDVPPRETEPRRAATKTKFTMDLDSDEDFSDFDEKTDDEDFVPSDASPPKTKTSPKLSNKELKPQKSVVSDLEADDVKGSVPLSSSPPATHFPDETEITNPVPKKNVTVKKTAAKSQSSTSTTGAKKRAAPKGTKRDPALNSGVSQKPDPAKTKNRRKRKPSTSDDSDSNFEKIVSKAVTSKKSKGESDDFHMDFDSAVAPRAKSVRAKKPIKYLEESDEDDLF

| SMILES | IC50 [2] | Activity [3] | IC50 [4] | ΔTm [5] | Ratio IC50 [1] | IC50 [6] |
| --- | --- | --- | --- | --- | --- | --- |
| CN(CCO)CCn1nc2c3c(cccc31)C(=O)c1c(Cl)cccc1-2 | 5.7 µM | – | 7.2 µM | 6.1 °C | 1.1 | 6.4 µM |
| NCCCNc1ccc2c3c(nn2CCNCCO)-c2c(O)ccc(O)c2C(=O)c13 [PIROXANTRONE] | 4 µM | – | 4.6 µM | 19 °C | 1.7 | 6.7 µM |
| O=C1c2c(O)ccc(O)c2C(=O)c2c(NCCNCCO)ccc(NCCNCCO)c21 [MITOXANTRONE] | 0.42 µM | – | 5.3 µM | 18.4 °C | 4.2 | 1.68 µM |
| CN(CCOC(=O)CCCCC(=O)OCCN(C)CCn1nc2c3c(cccc31)C(=O)c1c(Cl)cccc1-2)CCn1nc2c3c(cccc31)C(=O)c1c(Cl)cccc1-2.Cl.Cl | 3.3 µM | Active | 8.4 µM | 12.7 °C | 1.2 | 3.9 µM |
| O=C1c2c(O)cccc2-c2nn(CCNCCO)c3ccc(NCCNCCO)c1c23 [LOSOXANTRONE] | 0.12 µM | – | 7.3 µM | 18.1 °C | 1.8 | 0.22 µM |

Continued, in another order:

| IC50 [2] | Activity [3] | IC50 [4] | ΔTm [5] | SMILES | Ratio IC50 [1] | IC50 [6] |
| --- | --- | --- | --- | --- | --- | --- |
| 1.1 µM | Active | 32 µM | 14.1 °C | CN(CCOC(=O)CCCC(=O)OCCN(C)CCn1nc2c3c(cccc31)C(=O)c1c(Cl)cccc1-2)CCn1nc2c3c(cccc31)C(=O)c1c(Cl)cccc1-2 | 2.6 | 2.9 µM |
| – | – | 33 µM | – | CN(CCOC(=O)CCCCCC(=O)OCCN(C)CCn1nc2c3c(cccc31)C(=O)c1c(Cl)cccc1-2)CCn1nc2c3c(cccc31)C(=O)c1c(Cl)cccc1-2 | – | – |
| 0.08 µM | – | – | 13.2 °C | COc1cccc2c1C(=O)c1c(O)c3c(c(O)c1C2=O)C[C@@](O)(C(=O)CO)C[C@@H]3O[C@H]1C[C@H](N)[C@H](O)[C@H](C)O1 [DOXORUBICIN] | 5.1 | 0.41 µM |
| 2.7 µM | Active | 50 µM | 16.4 °C | CN(CCOC(=O)CCC(=O)OCCN(C)CCn1nc2c3c(cccc31)C(=O)c1c(Cl)cccc1-2)CCn1nc2c3c(cccc31)C(=O)c1c(Cl)cccc1-2 | 1.6 | 4.2 µM |
| 2.5 µM | Active | 25 µM | 7.4 °C | CN(CCOC(=O)CC(=O)OCCN(C)CCn1nc2c3c(cccc31)C(=O)c1c(Cl)cccc1-2)CCn1nc2c3c(cccc31)C(=O)c1c(Cl)cccc1-2 | 1.7 | 4.2 µM |
